A short description of series [1]: Cytotoxicity against human U373 cells after 3 days by sulforhodamine B assay. The note with it: U373 MG, 72 h, read-out: ED50 (the source's name). The format is functional, U-373MG ATCC. For orientation: The SRB assay estimates cell density from bound dye.
In another series the test system is ZR-75-1. In words: Cytotoxicity against human ZR-75-1 cells after 3 days by sulforhodamine B assay. The format is functional. The following applies: ZR-75-1, 72 h, read-out: ED50 (the source's name).
The next series has as its system P388. Description: Cytotoxicity against mouse P388 cells after 3 days by sulforhodamine B assay. The format is functional. The following applies: P388, 72 h, read-out: ED50 (the source's name).
A further series relates to KB. In words: Cytotoxicity against human KB cells after 3 days by sulforhodamine B assay. Format: functional. The note with it: 72 h, read-out: ED50 (the source's name).
Another series concerns A-431. Description: Cytotoxicity against human A431 cells after 3 days by sulforhodamine B assay. Format: functional. The note with it: A-431, 72 h, read-out: ED50 (the source's name).
The nature of series [2]: Selectivity index, ratio of ED50 for human KB cells to ED50 for Plasmodium falciparum W2. Format: toxicity, cell-based. The following applies: read-out: Ratio ED50.
For another series, the system named is SK-MEL-2. Description: Cytotoxicity against human SK-MEL-2 cells after 3 days by sulforhodamine B assay. The note with it: SK-MEL-2, 72 h, read-out: ED50 (the source's name). Format: functional.
Series [3] is described as follows: Cytotoxicity against human KBV1 cells after 3 days by sulforhodamine B assay. Format: functional. The following applies: KB-V1, 72 h, read-out: ED50 (the source's name).
Series [4] is described as follows: Cytotoxicity against human BCA1 cells after 3 days by sulforhodamine B assay. Format: functional. The following applies: BCA1, 72 h, read-out: ED50 (the source's name).
For another series, the system named is LNCaP. In words: Cytotoxicity against human LNCAP cells after 3 days by sulforhodamine B assay. The note with it: 72 h, read-out: ED50 (the source's name). Format: functional.
A further series relates to HT-1080. Description: Cytotoxicity against human HT1080 cells after 3 days by sulforhodamine B assay. The format is functional. The note with it: HT-1080, 72 h, read-out: ED50 (the source's name).
Series [5] is described as follows: Selectivity index, ratio of ED50 for human KB cells to ED50 for Plasmodium falciparum D6. The format is toxicity, cell-based. The following applies: read-out: Ratio ED50.
Series [6] is described as follows: Cytotoxicity against human LUC1 cells after 3 days by sulforhodamine B assay. The format is functional. The note with it: LUC1, 72 h, read-out: ED50 (the source's name).
A short description of series [7]: Cytotoxicity against human Col1 cells after 3 days by sulforhodamine B assay. The format is functional. The following applies: Col1, 72 h, read-out: ED50 (the source's name).
Series [8] deals with Plasmodium falciparum. In words: Antimalarial activity after 24 hrs against Plasmodium falciparum D6 infected type A+ human erythrocytes by [3H]hypoxanthine uptake. The format is functional. The following applies: D6, read-out: ED50.
Series [9] relates to Plasmodium falciparum. Description: Antimalarial activity after 24 hrs against Plasmodium falciparum W2 infected in type A+ human erythrocytes by [3H]hypoxanthine uptake. Format: functional. The note with it: W2, read-out: ED50.

In brackets after ≈: the same amount, converted by molar mass.

As for `CO[C@H]1C=C[C@@]23c4cc5c(cc4CN(C[C@@H]2O)[C@H]3C1)OCO5`, the EC50 in [1] was determined as 0.9 µg/mL (≈ 2.99 µM); in the series with ZR-75-1, 0.8 µg/mL (≈ 2.65 µM); in the series on P388, 0.7 µg/mL (≈ 2.32 µM); in the series on KB, 1 µg/mL (≈ 3.32 µM); in the series on A-431 it was 6.9 µg/mL (≈ 22.9 µM); in the series with SK-MEL-2 it was 5 µg/mL (≈ 16.6 µM). Further, the EC50 in series [3] is 0.6 µg/mL (≈ 1.99 µM); in series [4], 1.4 µg/mL (≈ 4.65 µM); in the series on LNCaP it was 1.5 µg/mL (≈ 4.98 µM); with HT-1080 it was 1.3 µg/mL (≈ 4.31 µM); in [6] it was 1.4 µg/mL (≈ 4.65 µM); in series [7], 1 µg/mL (≈ 3.32 µM). Besides, the selectivity ratio in [2] and in series [5] was 0.4 in each case.

Regarding `CCN(CC)CCCC(C)Nc1ccnc2cc(Cl)ccc12` (stereo not drawn) [CHLOROQUINE], the EC50 amounted to 0.0013 µg/mL (≈ 0.00406 µM) in the series with Plasmodium falciparum [8] and 0.0112 µg/mL (≈ 0.035 µM) in the series on Plasmodium falciparum [9].

For `O[C@H]1[C@H]2c3cc4c(cc3CN3CCC(=C[C@@H]1O)[C@H]23)OCO4` [LYCORINE], the EC50 came out at 0.3 µg/mL (≈ 1.04 µM) in series [1]; 0.9 µg/mL (≈ 3.13 µM) in the series on ZR-75-1; 0.9 µg/mL (≈ 3.13 µM) with P388; 0.3 µg/mL (≈ 1.04 µM) with KB; 0.32 µg/mL (≈ 1.11 µM) in the series on Plasmodium falciparum [8]; 1.3 µg/mL (≈ 4.52 µM) in the series on A-431. For the same compound, the EC50 is 1.6 µg/mL (≈ 5.57 µM) in the series on SK-MEL-2; 0.4 µg/mL (≈ 1.39 µM) in [3]; 1.6 µg/mL (≈ 5.57 µM) in series [4]; 0.5 µg/mL (≈ 1.74 µM) with LNCaP; 0.5 µg/mL (≈ 1.74 µM) in the series on HT-1080; 0.3 µg/mL (≈ 1.04 µM) with Plasmodium falciparum [9]. For the same compound, the EC50 in series [6] was 0.9 µg/mL (≈ 3.13 µM); in series [7], 0.8 µg/mL (≈ 2.78 µM). The selectivity ratio in series [2] and in series [5] was 1 in each case.

As for `O[C@@H]1CC[C@H]2N3CC[C@@]2(c2cc4c(cc2C3)OCO4)[C@@H]1O`, the EC50 is > 20 µg/mL in series [1]; > 20 µg/mL with ZR-75-1; > 5 µg/mL with P388; > 20 µg/mL in the series on KB; > 20 µg/mL in the series on A-431; > 20 µg/mL in the series with SK-MEL-2. The EC50 (in series [3]; in series [4]; in the series with LNCaP; with HT-1080; in series [6]; in series [7]) was > 20 µg/mL in each case.

Regarding `C=C[C@H]1CN2CC[C@H]1C[C@H]2[C@H](O)c1ccnc2ccc(OC)cc12` [QUININE], the results for the EC50 in the series with Plasmodium falciparum [8] and with Plasmodium falciparum [9] were 0.0094 µg/mL (≈ 0.029 µM) and 0.0245 µg/mL (≈ 0.0755 µM), respectively. Further, the results for the selectivity ratio in series [2] and in [5] were > 820 and > 2130, respectively.

Turning to `CO[C@@H]1C[C@H]2N3CC[C@@]2(c2cc4c(cc2C3)OCO4)[C@H]2O[C@@H]12`, the EC50 in series [1] was 0.6 µg/mL (≈ 1.99 µM); in the series on ZR-75-1, 1.8 µg/mL (≈ 5.97 µM); with P388, 0.6 µg/mL (≈ 1.99 µM); with KB it was 0.6 µg/mL (≈ 1.99 µM); in the series on Plasmodium falciparum [8], 0.14 µg/mL (≈ 0.465 µM); with A-431, 4.9 µg/mL (≈ 16.3 µM). Also, the EC50 with SK-MEL-2 was 3.2 µg/mL (≈ 10.6 µM); in [3], > 20 µg/mL; in series [4], 2.8 µg/mL (≈ 9.29 µM); with LNCaP, 1.7 µg/mL (≈ 5.64 µM); in the series on HT-1080 it was 1.2 µg/mL (≈ 3.98 µM); in the series with Plasmodium falciparum [9], 0.18 µg/mL (≈ 0.597 µM). Also, the EC50 came to 3.7 µg/mL (≈ 12.3 µM) in [6] and 2.4 µg/mL (≈ 7.96 µM) in series [7]. Moreover, the figures for the selectivity ratio in series [2] and in series [5] were 3 and 4, respectively.

Regarding `C[C@@H]1CC[C@H]2[C@@H](C)C(=O)O[C@@H]3O[C@@]4(C)CC[C@@H]1[C@]32OO4` [ARTEMISININ], in the series with Plasmodium falciparum [8], the EC50 is 0.0006 µg/mL (≈ 0.00213 µM). The figures for the selectivity ratio in series [2] and in series [5] were > 40000 and > 33300, respectively.

`OC(c1cc(C(F)(F)F)nc2c(C(F)(F)F)cccc12)C1CCCCN1` (stereo not drawn) [MEFLOQUINE]: the EC50 came out at 0.0073 µg/mL (≈ 0.0193 µM) in the series on Plasmodium falciparum [8] and 0.0016 µg/mL (≈ 0.00423 µM) in the series with Plasmodium falciparum [9]. In addition, the selectivity ratio in [2] was 2190; in series [5], 480.

`COC1C=C[C@@]23CCN(Cc4cc5c(cc42)OCO5)[C@@H]3C1` (stereo partly drawn): the EC50 in series [1] is > 20 µg/mL; in the series on ZR-75-1 it was > 20 µg/mL; with P388, > 5 µg/mL; in the series on KB, > 20 µg/mL; with A-431, > 20 µg/mL; in the series with SK-MEL-2 it was > 20 µg/mL. Further, the EC50 in series [3] is 19.8 µg/mL (≈ 69.4 µM); in series [4] it was > 20 µg/mL; with LNCaP it was > 20 µg/mL; in the series with HT-1080, > 20 µg/mL; in [6] it was > 20 µg/mL; in series [7], > 20 µg/mL.

The record behind these values is ChEMBL document CHEMBL1148188, “Cytotoxic and antimalarial alkaloids from the bulbs of Crinum amabile” (J Nat Prod, 1993).
